Test results as given in EP1212335B1, “GLUCOPYRANOSIDES CONJUGATES OF 2-(4-HYDROXY-PHENYL)-1- 4-(2-AMIN-1-YL-ETHOXY)-BENZYL]-1H-INDOL-5-OLS” (Wyeth, priority 1999, dated 2001).

Target: T1, estrogen receptor (Homo sapiens, UniProt P03372)
T1 construct: since the MCF-7 cells express estrogen receptors; endogenous in cells; host or cells: MCF-7 human mammary carcinoma cells, infected with adenovirus 5-ERE-tk-luciferase (reporter only)
T1 sequence (P03372 1-595): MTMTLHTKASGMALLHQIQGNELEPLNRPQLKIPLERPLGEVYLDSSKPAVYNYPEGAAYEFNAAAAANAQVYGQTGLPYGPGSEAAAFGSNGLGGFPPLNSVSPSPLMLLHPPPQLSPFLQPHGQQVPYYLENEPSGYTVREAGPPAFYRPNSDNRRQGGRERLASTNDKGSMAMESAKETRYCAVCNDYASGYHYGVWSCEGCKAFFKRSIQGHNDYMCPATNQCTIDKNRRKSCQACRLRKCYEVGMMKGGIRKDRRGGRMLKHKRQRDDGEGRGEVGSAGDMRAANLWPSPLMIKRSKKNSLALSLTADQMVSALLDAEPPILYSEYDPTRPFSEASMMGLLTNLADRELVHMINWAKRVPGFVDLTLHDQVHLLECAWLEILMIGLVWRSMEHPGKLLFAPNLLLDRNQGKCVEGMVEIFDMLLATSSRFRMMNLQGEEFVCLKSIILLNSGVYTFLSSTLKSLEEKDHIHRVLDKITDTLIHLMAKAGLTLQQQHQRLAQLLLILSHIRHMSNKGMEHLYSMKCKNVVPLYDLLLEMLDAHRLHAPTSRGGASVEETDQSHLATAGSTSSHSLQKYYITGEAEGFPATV
Test: Estrogen antagonist/agonist activity in MCF-7 cells infected with adenovirus 5-ERE-tk-luciferase (luciferase reporter)
Assay type: cell-based
Conditions: antagonist mode, co-dosed with 10 pM 17β-estradiol, 24 h treatment
Source text: Estrogen antagonist activity was shown for representative compounds of this invention in a standard pharmacological test procedure using MCF-7 cells transfected with an estrogen receptor. When administered orally, the compounds of this invention act at least partially as prodrugs for the corresponding hydroxylated compounds disclosed in EP 802183. Accordingly, the compounds of this invention are tissue selective estrogens, meaning that in certain tissue containing estrogen receptors, the compounds will act as estrogen agonists, and in other tissue containing estrogen receptors, the compounds will act as antagonists. […] The cell lysates (20 uL) were transferred to a 96 well luminometer plate, and luciferase activity was measured in a MicroLumat LB 96 P luminometer (EG and G Bethold) using 100 uL/well of luciferase substrate (Promega Corporation). […] Following the injection of the substrate, luciferase activity was measured for 10 seconds after a 1 second delay. The data were transferred from the luminometer to a Macintosh personal computer and analyzed using the JMP software (SAS institute); this program subtracts the background reading from the luciferase measurement for each well and then determine the mean and standard deviation of each treatment. […]

Question: Which IC50 does the source give for `Cc1c(-c2ccc(OC3OC(C(=O)O)C(O)C(O)C3O)cc2)n(Cc2ccc(OCCN3CCCCCC3)cc2)c2ccc(O)cc12` (centres unmarked) [Compound 38, 1-[4-(2-Azepan-1-yl-ethoxy)-benzyl]-2-(4-hydroxy-phenyl)-3-methyl-1H-indol-5-ol 4-O-glucuronide] here?
Answer: 1100 nM

Question: `Cc1c(-c2ccc(O)cc2)n(Cc2ccc(OCCN3CCCCCC3)cc2)c2ccc(OC3OC(C(=O)O)C(O)C(O)C3O)cc12` (centres unmarked) [Compound 30, 1-[4-(2-Azepan-1-yl-ethoxy)-benzyl]-2-(4-hydroxy-phenyl)-3-methyl-1H-indol-5-ol 5-O-glucuronide] was tested. Which IC50 did it give?
Answer: 210 nM
